Measured values as given in patent publication US20250368678A1, “19-NOR-C3,3-DISUBSTITUTED C21-AZACYCLO-S[…] AND METHOD FOR USING SAME” (SHANDONG LUYE PHARMACEUTICAL CO., LTD., priority 2022, published 2025).

Tested on: not listed separately
Test: In vitro liver microsomal stability assay, human
Type: in vitro ADME
Conditions: Human liver microsomes
Experimental: (§1) 1) Preparation of working solutions of test samples: The test samples were diluted with acetonitrile to 100 M.
(§2) 2) Preparation of a working solution of liver microsomes: liver microsomes were diluted with 100 mM phosphate-buffered saline to 0.56 mg/mL.
(§3) 3) Preparation of a working solution of reduced nicotinamide adenine dinucleotide (NADPH): A proper amount of NADPH was weighed out and diluted with phosphate-buffered saline to 20 mM, and an equal volume of a 60 mM MgCl2 solution was added.
(§4) 4) Preparation of a stop solution: Tolbutamide was diluted with acetonitrile to 20 ng/mL, serving as a stop solution containing an internal standard.
(§5) 1) Incubation anti-adsorption EP tubes were prepared and labeled with species, test/control sample, time points (0, 5, 10, 20, 30, 60 min, Blank60, and NCF60), etc.
(§6) 2) 2 L of test or control sample working solution, diluted with acetonitrile to 100 M, and 178 L of liver microsome working solution were added to each tube. For the Blank60 tube, 2 L of acetonitrile was added instead of a test sample. The tubes were pre-incubated in a 37° C. water bath for about 10 min, with each sample tested in triplicate.
(§7) 3) After the pre-incubation was complete, 20 L of NADPH working solution was added to each tube except for the 0 min and NCF60 tubes to start reactions, and 20 L of phosphate-buffered saline (containing 30 mM MgCl2) was added to the NCF60 tube. In the incubation system, the final concentrations of the test and control samples were 1 M, the final concentration of liver microsomes was 0.5 mg/mL, the final concentration of NADPH was 1 mM, and the final concentration of MgCl2 was 3 mM.
(§8) 4) For the 0 min sample, 600 L of stop solution was added before adding the NADPH working solution. After each sample was incubated for its respective time, 600 L of stop solution was added to stop the reaction.
(§9) 5) After the reaction was stopped, each sample was vortexed for 30 s and then centrifuged at 13,500 rpm for 10 min. 100 L of the supernatant was transferred to an EP tube, and 100 L Milli-Q water was added. The mixture was well mixed by vortexing and analyzed by LC-MS/MS.
(§10) 6) Testosterone and dextromethorphan were used as positive control samples under the same conditions to assess the stability and reliability of the system.
(§11) Parameters of the test samples, including their half-lives, intrinsic clearance rates in liver microsomes, and hepatic intrinsic clearance rates, were calculated based on the percentage of test sample remaining.

Row | Structure (SMILES) | CLint scaled at 1 µM [mL/min/kg] | T1/2 [min] | half-life at 1 µM [min]
1 | C[C@@]1(O)CC[C@H]2[C@H](CC[C@@H]3[C@@H]2CC[C@]2(C)[C@@H](C(=O)Cn4ncn(-c5ccc(F)cc5)c4=O)CC[C@@H]32)C1 [Compound 9] | 38 | 32.8 | 
2 | C[C@@]1(O)CC[C@H]2[C@H](CC[C@@H]3[C@@H]2CC[C@]2(C)[C@@H](C(=O)Cn4ccn(-c5cccc(F)c5)c4=O)CC[C@@H]32)C1 [Compound 11] | 63 |  | 19.8
3 | C[C@@]1(O)CC[C@H]2[C@H](CC[C@@H]3[C@@H]2CC[C@]2(C)[C@@H](C(=O)Cn4cnn(-c5ccc(F)cc5F)c4=O)CC[C@@H]32)C1 [Compound 25] | 25 |  | 49.5
4 | C[C@@]1(O)CC[C@H]2[C@H](CC[C@@H]3[C@@H]2CC[C@]2(C)[C@@H](C(=O)Cn4cnn(-c5cncc(F)c5)c4=O)CC[C@@H]32)C1 [Compound 23] | 21 |  | 60.3

Same assay, conditions: Human liver microsomes 0.5 mg/mL, NADPH

Row | Structure (SMILES) | Remaining amount % at 60 min [%]
5 | C[C@@]1(O)CC[C@H]2[C@H](CC[C@@H]3[C@@H]2CC[C@]2(C)[C@@H](C(=O)Cn4ncn(-c5ccc(F)cc5)c4=O)CC[C@@H]32)C1 [Compound 9] | 24.73
6 | C[C@@]1(O)CC[C@H]2[C@H](CC[C@@H]3[C@@H]2CC[C@]2(C)[C@@H](C(=O)Cn4ccn(-c5cccc(F)c5)c4=O)CC[C@@H]32)C1 [Compound 11] | 28.02
7 | C[C@@]1(O)CC[C@H]2[C@H](CC[C@@H]3[C@@H]2CC[C@]2(C)[C@@H](C(=O)Cn4cnn(-c5ccc(F)cc5F)c4=O)CC[C@@H]32)C1 [Compound 25] | 42
8 | C[C@@]1(O)CC[C@H]2[C@H](CC[C@@H]3[C@@H]2CC[C@]2(C)[C@@H](C(=O)Cn4cnn(-c5cncc(F)c5)c4=O)CC[C@@H]32)C1 [Compound 23] | 53.4

Same assay, conditions: Human liver microsomes; read-out: CLint(mic)

Row | Structure (SMILES) | microsomal CLint at 1 µM [µL/min/mg]
9 | C[C@@]1(O)CC[C@H]2[C@H](CC[C@@H]3[C@@H]2CC[C@]2(C)[C@@H](C(=O)Cn4ncn(-c5ccc(F)cc5)c4=O)CC[C@@H]32)C1 [Compound 9] | 42
10 | C[C@@]1(O)CC[C@H]2[C@H](CC[C@@H]3[C@@H]2CC[C@]2(C)[C@@H](C(=O)Cn4ccn(-c5cccc(F)c5)c4=O)CC[C@@H]32)C1 [Compound 11] | 70
11 | C[C@@]1(O)CC[C@H]2[C@H](CC[C@@H]3[C@@H]2CC[C@]2(C)[C@@H](C(=O)Cn4cnn(-c5ccc(F)cc5F)c4=O)CC[C@@H]32)C1 [Compound 25] | 28
12 | C[C@@]1(O)CC[C@H]2[C@H](CC[C@@H]3[C@@H]2CC[C@]2(C)[C@@H](C(=O)Cn4cnn(-c5cncc(F)c5)c4=O)CC[C@@H]32)C1 [Compound 23] | 23

Target: T1, α1β2γ2 GABA receptors (α1β2γ2-CHO-TRex stable cell strain) (Homo sapiens, UniProt P14867+P47870)
T1 construct: expressed in transfected cells
Test: Whole-cell patch clamp, intrasynaptic functional activity (positive allosteric regulation of GABA-induced current)
Type: cell-based
Conditions: patch clamp -60 mV, GABA at EC10-20, α1β2γ2-CHO-TRex cells
Experimental: (§12) The α4β3δ-HEK-FlpIn-TRex stable cell strain was cultured in DMEM+10% FBS complete culture medium, with the selective antibiotics being 10 μg/mL Blasticidin, 100 µg/mL Zeocin, 100 µg/mL Hygromycin, and 0.2 μg/mL Puromycin. The α1β2γ2-CHO-TRex stable cell strain was cultured in DMEM/F12+10% FBS complete culture medium, with the selective antibiotics being 10 μg/mL Blasticidin, 100 μg/mL Zeocin, 300 μg/mL Hygromycin, and […] Puromycin.
(§13) The day before the patch clamp experiment, cells were seeded onto 12 mm polylysine-coated coverslips and then cultured in 35 mm culture dishes, and tetracycline ([…]) was added to induce the expression of GABA receptors. The extracellular fluid had the following composition (in mM): 140 NaCl, 3 KCl, 1.5 MgCl2, 2 CaCl2, 10 HEPES, and 10 Glucose. After thorough mixing, NaOH was added to adjust the pH to 7.4, and sucrose was added to adjust the osmotic pressure to 300-320 mOsm. The fluid was stored at 4° C. The electrode internal solution had the following composition (in mM): 145 KCl, 1 MgCl2, 5 EGTA, 10 HEPES, and 5 MgATP. After thorough mixing, KOH was added to adjust the pH to 7.3, and sucrose was added to adjust the osmotic pressure to 290-300 mOsm. The solution was filtered through a […] before use.
(§14) Whole-cell patch clamp recording was mainly employed in this experiment. The membrane potential was clamped at −60 mV, and receptors were activated using GABA at an EC10-20 concentration ([…]). The test compounds were dissolved in 0.1% DMSO, and perfusion was performed for 30 s prior to GABA stimulation. Finally, the positive allosteric regulating effects of the test compounds on α1β2γ2 or α4β3δ were determined.
(§15) The experimental result for each concentration was expressed as a fold increase in the GABA-induced current caused by the compound. […] At least 5 concentrations are tested to obtain a complete EC50 curve and EC50 values. All experiments were repeated on no less than 3 cells, and data processing was completed using GraphPad prism software. The dose-response curves were fitted using the Hill equation, and the half-maximal activating concentration EC50 and Emax were finally obtained.

T1 sequence (P14867 28-456): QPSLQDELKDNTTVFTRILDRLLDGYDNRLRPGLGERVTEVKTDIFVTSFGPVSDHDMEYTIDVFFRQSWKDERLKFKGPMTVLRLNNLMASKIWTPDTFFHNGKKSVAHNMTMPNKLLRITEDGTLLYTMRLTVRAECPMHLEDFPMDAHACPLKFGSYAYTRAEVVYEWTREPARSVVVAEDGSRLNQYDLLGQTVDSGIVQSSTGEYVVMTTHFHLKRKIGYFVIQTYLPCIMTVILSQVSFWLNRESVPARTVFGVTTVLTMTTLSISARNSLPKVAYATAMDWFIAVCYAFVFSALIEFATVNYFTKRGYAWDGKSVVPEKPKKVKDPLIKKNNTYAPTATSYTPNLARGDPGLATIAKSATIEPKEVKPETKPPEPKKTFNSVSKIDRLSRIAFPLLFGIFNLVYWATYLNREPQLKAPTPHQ
T1 sequence (P47870 25-512 limits assumed): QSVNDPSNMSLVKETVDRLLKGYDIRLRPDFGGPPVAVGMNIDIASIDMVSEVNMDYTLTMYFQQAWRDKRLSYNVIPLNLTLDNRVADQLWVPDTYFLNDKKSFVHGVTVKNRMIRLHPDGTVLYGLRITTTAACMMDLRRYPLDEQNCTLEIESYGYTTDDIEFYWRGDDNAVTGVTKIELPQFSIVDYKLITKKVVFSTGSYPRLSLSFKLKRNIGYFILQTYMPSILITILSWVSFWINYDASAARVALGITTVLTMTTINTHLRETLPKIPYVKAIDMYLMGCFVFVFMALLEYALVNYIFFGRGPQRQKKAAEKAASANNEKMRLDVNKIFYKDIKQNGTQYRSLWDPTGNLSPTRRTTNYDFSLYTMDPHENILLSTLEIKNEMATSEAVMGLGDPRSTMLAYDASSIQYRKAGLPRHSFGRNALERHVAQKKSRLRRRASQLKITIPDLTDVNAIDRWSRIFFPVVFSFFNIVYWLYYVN
T1 sequence (P18507 40-475 partner): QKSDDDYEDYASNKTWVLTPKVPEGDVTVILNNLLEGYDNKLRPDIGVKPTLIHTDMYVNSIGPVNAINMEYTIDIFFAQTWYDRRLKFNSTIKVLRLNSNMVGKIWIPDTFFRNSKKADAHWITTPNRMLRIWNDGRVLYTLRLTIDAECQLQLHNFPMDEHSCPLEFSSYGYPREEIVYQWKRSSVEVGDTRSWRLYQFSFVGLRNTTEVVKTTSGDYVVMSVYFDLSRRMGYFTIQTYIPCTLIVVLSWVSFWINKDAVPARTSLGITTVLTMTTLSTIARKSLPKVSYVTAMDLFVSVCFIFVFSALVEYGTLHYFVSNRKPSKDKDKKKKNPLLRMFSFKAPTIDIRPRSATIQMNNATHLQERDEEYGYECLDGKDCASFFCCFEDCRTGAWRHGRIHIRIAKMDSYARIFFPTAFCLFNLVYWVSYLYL

Row | Structure (SMILES) | EC50 [nM] | Emax [%]
13 | C[C@@]1(O)CC[C@H]2[C@H](CC[C@@H]3[C@@H]2CC[C@]2(C)[C@@H](C(=O)Cn4ncn(-c5ccc(F)cc5)c4=O)CC[C@@H]32)C1 [Compound 9] | 12.4 | 294
14 | C[C@@]1(O)CC[C@H]2[C@H](CC[C@@H]3[C@@H]2CC[C@]2(C)[C@@H](C(=O)Cn4ccn(-c5cccc(F)c5)c4=O)CC[C@@H]32)C1 [Compound 11] | 241 | 594
15 | C[C@@]1(O)CC[C@H]2[C@H](CC[C@@H]3[C@@H]2CC[C@]2(C)[C@@H](C(=O)Cn4cnn(-c5ccc(F)cc5F)c4=O)CC[C@@H]32)C1 [Compound 25] | 784 | 692
16 | C[C@@]1(O)CC[C@H]2[C@H](CC[C@@H]3[C@@H]2CC[C@]2(C)[C@@H](C(=O)Cn4cnn(-c5cncc(F)c5)c4=O)CC[C@@H]32)C1 [Compound 23] | 145 | 618

Tested on: not listed separately
Test: In vitro liver microsomal stability assay, rat
Type: in vitro ADME
Conditions: Rat liver microsomes
Experimental: as §1, §2, §3, §4, §5, §6, §7, §8, §9, §10, §11

Row | Structure (SMILES) | CLint scaled at 1 µM [mL/min/kg] | T1/2 [min] | half-life at 1 µM [min]
17 | C[C@@]1(O)CC[C@H]2[C@H](CC[C@@H]3[C@@H]2CC[C@]2(C)[C@@H](C(=O)Cn4ncn(-c5ccc(F)cc5)c4=O)CC[C@@H]32)C1 [Compound 9] | 239 | 10.3 | 
18 | C[C@@]1(O)CC[C@H]2[C@H](CC[C@@H]3[C@@H]2CC[C@]2(C)[C@@H](C(=O)Cn4ccn(-c5cccc(F)c5)c4=O)CC[C@@H]32)C1 [Compound 11] | 276 |  | 9
19 | C[C@@]1(O)CC[C@H]2[C@H](CC[C@@H]3[C@@H]2CC[C@]2(C)[C@@H](C(=O)Cn4cnn(-c5ccc(F)cc5F)c4=O)CC[C@@H]32)C1 [Compound 25] | 104 |  | 24.1
20 | C[C@@]1(O)CC[C@H]2[C@H](CC[C@@H]3[C@@H]2CC[C@]2(C)[C@@H](C(=O)Cn4cnn(-c5cncc(F)c5)c4=O)CC[C@@H]32)C1 [Compound 23] | 72 |  | 34.7

Same assay, conditions: Rat liver microsomes 0.5 mg/mL, NADPH

Row | Structure (SMILES) | Remaining amount % at 60 min [%]
21 | C[C@@]1(O)CC[C@H]2[C@H](CC[C@@H]3[C@@H]2CC[C@]2(C)[C@@H](C(=O)Cn4ncn(-c5ccc(F)cc5)c4=O)CC[C@@H]32)C1 [Compound 9] | 4.19
22 | C[C@@]1(O)CC[C@H]2[C@H](CC[C@@H]3[C@@H]2CC[C@]2(C)[C@@H](C(=O)Cn4ccn(-c5cccc(F)c5)c4=O)CC[C@@H]32)C1 [Compound 11] | 9.24
23 | C[C@@]1(O)CC[C@H]2[C@H](CC[C@@H]3[C@@H]2CC[C@]2(C)[C@@H](C(=O)Cn4cnn(-c5ccc(F)cc5F)c4=O)CC[C@@H]32)C1 [Compound 25] | 16.2
24 | C[C@@]1(O)CC[C@H]2[C@H](CC[C@@H]3[C@@H]2CC[C@]2(C)[C@@H](C(=O)Cn4cnn(-c5cncc(F)c5)c4=O)CC[C@@H]32)C1 [Compound 23] | 31.7

Same assay, conditions: Rat liver microsomes; read-out: CLint(mic)

Row | Structure (SMILES) | microsomal CLint at 1 µM [µL/min/mg]
25 | C[C@@]1(O)CC[C@H]2[C@H](CC[C@@H]3[C@@H]2CC[C@]2(C)[C@@H](C(=O)Cn4ncn(-c5ccc(F)cc5)c4=O)CC[C@@H]32)C1 [Compound 9] | 133
26 | C[C@@]1(O)CC[C@H]2[C@H](CC[C@@H]3[C@@H]2CC[C@]2(C)[C@@H](C(=O)Cn4ccn(-c5cccc(F)c5)c4=O)CC[C@@H]32)C1 [Compound 11] | 153
27 | C[C@@]1(O)CC[C@H]2[C@H](CC[C@@H]3[C@@H]2CC[C@]2(C)[C@@H](C(=O)Cn4cnn(-c5ccc(F)cc5F)c4=O)CC[C@@H]32)C1 [Compound 25] | 58
28 | C[C@@]1(O)CC[C@H]2[C@H](CC[C@@H]3[C@@H]2CC[C@]2(C)[C@@H](C(=O)Cn4cnn(-c5cncc(F)c5)c4=O)CC[C@@H]32)C1 [Compound 23] | 40

Target: T2, α4β3δ GABA receptors (α4β3δ-HEK-FlpIn-TRex stable cell strain) (Homo sapiens, UniProt P28472+P48169)
T2 construct: expressed in transfected cells
Test: Whole-cell patch clamp, extrasynaptic functional activity (positive allosteric regulation of GABA-induced current)
Type: cell-based
Conditions: patch clamp -60 mV, GABA at EC10-20, α4β3δ-HEK-FlpIn-TRex cells
Experimental: as §12, §13, §14, §15

T2 sequence (P48169 36-554): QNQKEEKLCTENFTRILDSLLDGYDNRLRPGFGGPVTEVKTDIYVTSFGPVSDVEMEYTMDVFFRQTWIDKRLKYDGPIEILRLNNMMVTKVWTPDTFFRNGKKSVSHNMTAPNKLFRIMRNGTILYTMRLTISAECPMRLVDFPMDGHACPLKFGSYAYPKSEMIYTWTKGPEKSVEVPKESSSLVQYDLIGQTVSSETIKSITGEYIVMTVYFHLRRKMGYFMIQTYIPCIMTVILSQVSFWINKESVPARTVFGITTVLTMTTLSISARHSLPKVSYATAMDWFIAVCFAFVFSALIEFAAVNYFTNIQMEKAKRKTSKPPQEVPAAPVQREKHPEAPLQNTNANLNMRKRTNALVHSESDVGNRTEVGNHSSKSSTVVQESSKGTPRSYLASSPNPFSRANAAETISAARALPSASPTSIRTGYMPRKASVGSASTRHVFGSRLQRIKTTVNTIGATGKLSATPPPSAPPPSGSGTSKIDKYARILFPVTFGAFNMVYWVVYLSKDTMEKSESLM
T2 sequence (P28472 26-473): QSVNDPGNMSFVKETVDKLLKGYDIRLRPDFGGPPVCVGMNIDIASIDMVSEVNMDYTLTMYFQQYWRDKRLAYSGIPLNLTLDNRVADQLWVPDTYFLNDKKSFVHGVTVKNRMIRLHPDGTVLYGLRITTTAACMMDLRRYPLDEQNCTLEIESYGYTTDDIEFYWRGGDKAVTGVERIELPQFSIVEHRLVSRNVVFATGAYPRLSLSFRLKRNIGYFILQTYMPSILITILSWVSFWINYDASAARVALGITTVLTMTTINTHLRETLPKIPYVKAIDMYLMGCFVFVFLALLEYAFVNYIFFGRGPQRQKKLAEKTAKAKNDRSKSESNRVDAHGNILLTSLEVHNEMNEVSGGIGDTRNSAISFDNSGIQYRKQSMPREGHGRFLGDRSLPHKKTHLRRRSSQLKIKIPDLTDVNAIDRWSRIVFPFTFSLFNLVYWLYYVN
T2 sequence (O14764 25-452 partner): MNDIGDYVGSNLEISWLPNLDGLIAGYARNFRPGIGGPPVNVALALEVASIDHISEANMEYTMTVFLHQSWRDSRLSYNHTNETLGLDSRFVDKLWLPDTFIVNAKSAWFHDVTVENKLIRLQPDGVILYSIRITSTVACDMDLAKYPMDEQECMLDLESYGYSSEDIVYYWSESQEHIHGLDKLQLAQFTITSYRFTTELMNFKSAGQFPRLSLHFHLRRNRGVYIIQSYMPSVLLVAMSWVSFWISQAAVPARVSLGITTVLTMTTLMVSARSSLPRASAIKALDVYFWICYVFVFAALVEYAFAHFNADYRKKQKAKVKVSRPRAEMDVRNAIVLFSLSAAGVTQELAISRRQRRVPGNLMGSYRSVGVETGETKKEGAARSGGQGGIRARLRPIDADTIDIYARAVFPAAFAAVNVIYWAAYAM

Row | Structure (SMILES) | EC50 [nM] | Emax [%]
29 | C[C@@]1(O)CC[C@H]2[C@H](CC[C@@H]3[C@@H]2CC[C@]2(C)[C@@H](C(=O)Cn4ncn(-c5ccc(F)cc5)c4=O)CC[C@@H]32)C1 [Compound 9] | 148 | 428
30 | C[C@@]1(O)CC[C@H]2[C@H](CC[C@@H]3[C@@H]2CC[C@]2(C)[C@@H](C(=O)Cn4ccn(-c5cccc(F)c5)c4=O)CC[C@@H]32)C1 [Compound 11] | 139 | 552
31 | C[C@@]1(O)CC[C@H]2[C@H](CC[C@@H]3[C@@H]2CC[C@]2(C)[C@@H](C(=O)Cn4cnn(-c5ccc(F)cc5F)c4=O)CC[C@@H]32)C1 [Compound 25] | 89 | 542
32 | C[C@@]1(O)CC[C@H]2[C@H](CC[C@@H]3[C@@H]2CC[C@]2(C)[C@@H](C(=O)Cn4cnn(-c5cncc(F)c5)c4=O)CC[C@@H]32)C1 [Compound 23] | 150 | 601
